Measured values as given in patent US10322161B2, “EPHA4 cyclic peptide antagonists for neuroprotection and neural repair” (Sanford Burnham Prebys Medical Discovery Institute, priority 2014, dated 2019).
Entries after “also recorded” stand apart in the source; their conditions may differ. Blank lines part the entries; values can stand above or below the compound they belong to. Ends that are not written are not given here.

What was measured:
[1] = Stability of antagonistic activity in plasma
[2] = biological target: T1, EphA4 (Mus musculus, UniProt Q03137); assay: ELISA, inhibition of ephrin-A5 AP binding to immobilized EphA4 Fc; details: C-terminally amidated peptides
T1 construct: mouse EphA4 ectodomain fused to Fc; purchased R&D Systems

[3] = system: other Eph receptors (EphA2, EphA3, EphA5, EphA6, EphA7, EphA8, EphB1, EphB2, EphB3, EphB4, EphB6); assay: Eph receptor selectivity ELISA (ephrin-A5 AP / ephrin-B2 AP binding to Eph receptor Fc); details: concentration about 100-fold higher than the IC50 value for EphA4
[4] = in vitro; details: mouse, plasma, Half-life (t1/2) Plasma
[5] = Stability of antagonistic activity in cerebrospinal fluid (CSF); details: rat, depending on the conditions, units inside the value
[6] = system: HT22 mouse hippocampal neurons; assay: MTT cytotoxicity assay; format: cell-based; details: HT22 cells, 24 hours, 30 μM
Experimental: HT22 mouse hippocampal neurons were grown in DMEM supplemented with 10% FBS, 1 mM sodium pyruvate and antibiotics. […] The cells were then incubated for 2 hours in 5 mg/mL MTT (Sigma-Aldrich) in PBS at 37° C. in a CO2 incubator. The resulting formazan crystals were solubilized by addition of 100% DMSO and OD570 was measured.

[7] = in vitro; details: rat, Half-life (t1/2) CSF
[8] = mouse, plasma, Half-life (t1/2) Plasma
[9] = biological target: EphA4 (Homo sapiens, UniProt P54764); details: background statement; cited from earlier work
EphA4 (Homo sapiens, UniProt P54764), sequence (P54764 20-986, species assumed): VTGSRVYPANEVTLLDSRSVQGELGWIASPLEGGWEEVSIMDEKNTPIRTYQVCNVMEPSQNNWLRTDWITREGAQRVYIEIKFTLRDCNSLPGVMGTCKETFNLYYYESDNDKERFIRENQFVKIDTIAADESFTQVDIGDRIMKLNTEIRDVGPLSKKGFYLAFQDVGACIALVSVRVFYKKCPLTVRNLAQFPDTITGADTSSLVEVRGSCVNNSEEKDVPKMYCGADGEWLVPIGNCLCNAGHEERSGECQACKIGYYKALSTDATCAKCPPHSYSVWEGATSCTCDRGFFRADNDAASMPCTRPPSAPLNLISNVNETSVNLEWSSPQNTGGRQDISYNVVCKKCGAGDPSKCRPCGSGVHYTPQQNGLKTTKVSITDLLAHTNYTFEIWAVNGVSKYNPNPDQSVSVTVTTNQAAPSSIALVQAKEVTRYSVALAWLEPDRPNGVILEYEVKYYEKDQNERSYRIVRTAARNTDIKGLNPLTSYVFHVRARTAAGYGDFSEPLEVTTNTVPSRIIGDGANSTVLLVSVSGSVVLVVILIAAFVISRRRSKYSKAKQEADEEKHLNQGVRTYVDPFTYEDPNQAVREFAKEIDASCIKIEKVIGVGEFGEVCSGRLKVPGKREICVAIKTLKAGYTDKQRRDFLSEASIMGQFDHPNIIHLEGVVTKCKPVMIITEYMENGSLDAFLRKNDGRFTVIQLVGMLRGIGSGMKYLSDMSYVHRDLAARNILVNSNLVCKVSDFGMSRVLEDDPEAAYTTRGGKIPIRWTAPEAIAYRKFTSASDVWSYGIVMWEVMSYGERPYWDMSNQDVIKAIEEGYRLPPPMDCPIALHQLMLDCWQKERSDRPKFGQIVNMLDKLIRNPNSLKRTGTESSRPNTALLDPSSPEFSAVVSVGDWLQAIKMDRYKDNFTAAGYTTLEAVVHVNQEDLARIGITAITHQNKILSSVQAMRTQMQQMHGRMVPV

T1 sequence (Q03137 20-547 limits assumed): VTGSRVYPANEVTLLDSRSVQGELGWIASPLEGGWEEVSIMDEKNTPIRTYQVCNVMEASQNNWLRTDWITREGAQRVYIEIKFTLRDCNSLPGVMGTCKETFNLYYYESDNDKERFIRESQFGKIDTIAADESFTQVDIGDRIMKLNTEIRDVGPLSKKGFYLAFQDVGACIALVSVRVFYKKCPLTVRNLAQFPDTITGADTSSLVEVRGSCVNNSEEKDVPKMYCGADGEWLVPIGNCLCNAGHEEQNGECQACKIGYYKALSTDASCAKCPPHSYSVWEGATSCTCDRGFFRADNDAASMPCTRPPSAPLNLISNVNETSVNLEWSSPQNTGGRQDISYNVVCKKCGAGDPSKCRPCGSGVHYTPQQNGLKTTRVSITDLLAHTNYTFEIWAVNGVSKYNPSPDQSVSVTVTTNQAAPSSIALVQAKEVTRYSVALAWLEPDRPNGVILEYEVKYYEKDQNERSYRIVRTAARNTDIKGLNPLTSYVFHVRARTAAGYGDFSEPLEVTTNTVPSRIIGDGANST

Compound: CC(C)[C@@H]1NC(=O)[C@@H](NC(=O)[C@H](Cc2ccc(O)cc2)NC(=O)[C@@H]2CCCN2C(=O)[C@H](C)N)CSSC[C@@H](C(=O)O)NC(=O)[C@H](CO)NC(=O)[C@H](Cc2c[nH]c3ccccc23)NC(=O)[C@H](CO)NC(=O)CNC(=O)[C@H](CCCNC(=N)N)NC(=O)[C@H](Cc2ccc(O)cc2)NC1=O [APY, reference compound]
half-life at 200 μM ([1]; mouse, plasma, Half-life (t1/2) Plasma, mouse plasma, 37° C., loss of antagonistic activity): 0.267 h

Compound: CC(C)[C@@H]1NC(=O)[C@@H](NC(=O)[C@H](Cc2ccc(O)cc2)NC(=O)[C@@H]2CCCN2C(=O)[C@H](C)N)CSSC[C@@H](C(N)=O)NC(=O)[C@H](CO)NC(=O)[C@H](Cc2c[nH]c3ccccc23)NC(=O)[C@H](CO)NC(=O)[C@H](C)NC(=O)[C@H](CCCNC(=N)N)NC(=O)[C@H](Cc2ccc(O)cc2)NC1=O [APY-Ala8.am]
loss in potency on replacement of Gly8 ([2]; relative to APY.am): about 30 fold

Compound: CC(C)[C@@H]1NC(=O)[C@@H](NC(=O)[C@H](Cc2ccc(O)cc2)NC(=O)[C@@H]2CCCN2C(=O)[C@H](C)N)CSSC[C@@H](C(N)=O)NC(=O)[C@H](CO)NC(=O)[C@H](Cc2c[nH]c3ccccc23)NC(=O)[C@H](CO)NC(=O)[C@@H](C)NC(=O)[C@H](CCCNC(=N)N)NC(=O)[C@H](Cc2ccc(O)cc2)NC1=O [APY-DAla8.am]
effect of Gly8 replacement on potency [2]: did not substantially affect potency

Compound: CC(C)[C@@H]1NC(=O)[C@@H](NC(=O)[C@H](Cc2ccc(O)cc2)NC(=O)[C@@H]2CCCN2C(=O)[C@H](C)N)CSSC[C@@H](C(N)=O)NC(=O)[C@H](CO)NC(=O)[C@H](Cc2c[nH]c3ccccc23)NC(=O)[C@H](CO)NC(=O)CCNC(=O)[C@H](CCCNC(=N)N)NC(=O)[C@H](Cc2ccc(O)cc2)NC1=O [APY-βAla8.am, APYCVYRβASWSC-am]
increase in stability ([1]; relative to KYL and APY): 2-8 fold
inhibition of other Eph receptors [3]: does not inhibit other Eph receptors
half-life at 200 μM [4]: ~2 h
half-life at 200 μM [5]: 0.5 to 3 h
cytotoxicity (MTT) [6]: did not reveal significant cytotoxicity; also recorded: does not have detectable cytotoxic effects
half-life at 200 μM [7]: 0.5 to 3 h

Now from value to compound, other results behind:

half-life at 200 μM [4]: ~72 h
half-life at 200 μM [7]: ~72 h
Compound: CC(C)[C@@H]1NC(=O)[C@@H](NC(=O)[C@H](Cc2ccc(O)cc2)NC(=O)[C@@H]2CCCN2C(=O)[C@@H](C)N)CSSC[C@@H](C(N)=O)NC(=O)[C@H](CO)NC(=O)[C@H](Cc2c[nH]c3ccccc23)NC(=O)[C@H](CO)NC(=O)CCNC(=O)[C@H](CCCNC(=N)N)NC(=O)[C@H](Cc2ccc(O)cc2)NC1=O [DAla1-PY-βAla8.am, D-APYCVYRβASWSC-am]

half-life [8]: 0.183 h
Compound: KYLPYWPVLSSL [KYL]
Kd [9]: 800 to 1000 nM
